Biological target: T1, human FP receptor (Homo sapiens, UniProt P43088)
T1 construct: expressed in transfected cells
Test: Ca2+ signaling, antagonism of 17-phenyl PGF2α response in HEK cells stably transfected with the human FP receptor
Format: cell-based
Method: HEK cells stably transfected with the human FP receptor were removed from the culture flasks by approximately 1 min treatment with trypsin 0.05%/0.53 mM EDTA in HBSS (Gibco, Grand Island, N.Y.) at 37° C. Proteolytic activity was arrested by adding 5 ml of 10% fetal bovine serum in DMEM. The cells were consecutively washed in Hank's BSS and medium containing 140 mM NaCl, […], 1 mM MgCl2, 1.5 mM CaCl2, 10 mM HEPES: TRIS, 5 mM glucose, 5 mM Na pyruvate, 0.1% bovine serum albumin at pH 7.4: centrifugation for the washes was performed for 15 minutes at 200 g at room temperature. Cells were counted, resuspended in the above medium and incubated with 2×10^−6 M Fura 2/acetoxymethyl ester in a shaking water bath for 30 minutes at 37° C. The cells were subsequently washed in medium as above and resuspended at a concentration of 2×10^6 cells ml^−1. Aliquots of 0.5 ml cell suspension were then added to autocap microtubes to provide 10^6 cells per experimental determination of intracellular free Ca^2+ concentration ([Ca^2+]i).
Fluorescence was measured in a Perkin-Elmer LS-5 fluorescence spectrophotometer at excitation and emission wavelengths of 340 and 492 nm, respectively, with both slits at 10 nm. […]

T1 sequence (P43088 whole entry): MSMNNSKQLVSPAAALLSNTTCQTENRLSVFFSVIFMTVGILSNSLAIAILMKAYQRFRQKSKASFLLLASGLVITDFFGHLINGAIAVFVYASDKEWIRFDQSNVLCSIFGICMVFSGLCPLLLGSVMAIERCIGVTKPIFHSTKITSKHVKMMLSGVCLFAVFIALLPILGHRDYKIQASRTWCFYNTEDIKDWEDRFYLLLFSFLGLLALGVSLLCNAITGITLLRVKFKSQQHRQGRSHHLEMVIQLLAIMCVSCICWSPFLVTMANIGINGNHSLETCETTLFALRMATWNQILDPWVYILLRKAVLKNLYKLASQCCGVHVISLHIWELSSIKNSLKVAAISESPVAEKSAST

COC(=O)CCc1ccccc1CC1C2CCC(O2)C1c1nc(C(=O)NCCCCC2CCCCC2)co1 (stereo not shown)
PGF2α antagonist activity (comparison in words): much less active than the corresponding acid

Source: US6369089B1, “Interheteroaryl 7-oxabicyclic [2.2.1]heptane oxazoles as prostaglandin F2α antagonists” (Allergan Sales, Inc., priority 2000, dated 2002)
